We go through 2 compounds from PMC11943355, “Identification of a Novel Antagonist of BRS-3 from Natural Products and Its Protective Effects Against H2O2-Induced Cardiomyocyte Injury” (International Journal of Molecular Sciences, 2025).

What all share (format): cell-based
Assay [1] addresses T1, BRS-3 (bombesin receptor subtype-3, BB3), murine (Mus musculus, UniProt O54798).
T1 construct: gene Brs3
T1 sequence (O54798 1-399): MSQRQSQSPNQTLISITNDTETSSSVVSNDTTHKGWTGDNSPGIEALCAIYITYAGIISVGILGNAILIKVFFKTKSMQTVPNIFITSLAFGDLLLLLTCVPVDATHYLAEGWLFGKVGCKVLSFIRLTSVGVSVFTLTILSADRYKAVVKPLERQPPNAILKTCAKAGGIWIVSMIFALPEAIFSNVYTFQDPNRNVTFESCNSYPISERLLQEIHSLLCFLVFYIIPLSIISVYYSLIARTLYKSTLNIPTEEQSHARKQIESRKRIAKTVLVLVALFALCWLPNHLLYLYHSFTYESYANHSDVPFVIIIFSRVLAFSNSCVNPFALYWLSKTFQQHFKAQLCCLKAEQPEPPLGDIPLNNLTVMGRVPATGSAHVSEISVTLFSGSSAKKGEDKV
Put plainly: inhibition of […] MK-5046-induced Ca2+ mobilization (FLIPR) in HEK293-mBRS-3 stable cells; also DMR (IC50 […]). A general note: Calcium assays in cells follow changes in intracellular calcium, usually with a dye or a luminescent sensor.

The target in assay [2] is T2, BRS-3 (bombesin receptor subtype-3, BB3), human (Homo sapiens, UniProt P32247).
T2 construct: gene BRS3
T2 sequence (P32247 1-399): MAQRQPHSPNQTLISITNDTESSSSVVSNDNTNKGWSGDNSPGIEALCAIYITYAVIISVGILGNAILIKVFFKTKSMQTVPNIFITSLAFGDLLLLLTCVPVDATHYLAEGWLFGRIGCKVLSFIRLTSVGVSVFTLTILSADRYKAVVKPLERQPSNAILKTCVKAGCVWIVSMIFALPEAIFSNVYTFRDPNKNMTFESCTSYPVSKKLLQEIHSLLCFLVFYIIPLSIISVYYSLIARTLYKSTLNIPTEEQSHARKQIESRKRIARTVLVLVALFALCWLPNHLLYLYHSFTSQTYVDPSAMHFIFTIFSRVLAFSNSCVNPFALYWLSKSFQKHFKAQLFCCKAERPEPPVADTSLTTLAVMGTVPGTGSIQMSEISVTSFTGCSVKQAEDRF
Description: inhibition of […] MK-5046-induced IP1 accumulation (HTRF) in H1299-hBRS-3 stable cells. (In general: Time-resolved FRET reads energy transfer from a long-lived donor to a nearby acceptor.)

In assay [3] the target is T1, BRS-3 (bombesin receptor subtype-3, BB3), murine. Description: reference peptide antagonist; inhibition of […] MK-5046-induced Ca2+ mobilization (FLIPR) in HEK293-mBRS-3 stable cells.

For the compound `CC(C)=CCc1c(O)ccc(-c2coc3cc(O)cc(O)c3c2=O)c1O` [LIA, licoisoflavone A], the results for the concentration for half-maximal inhibition (IC50) in assay [1] and in assay [2] were 706 nM and 841 nM, respectively.

Bantag-1 yielded an IC50 in assay [3] of 2.32 nM. That is a single-digit nanomolar value.

As a reminder, the IC50 is the concentration needed to halve the response being measured. Read a low IC50 as greater potency in that assay.
